According to the supplement of paper PMC13380429:

Experiments:
Conditions in all cases: 72 h
Calu-3 [1] = assay: drug sensitivity score (DSS) for viability; higher = more toxic; extreme values may be limits of the assay
Vero E6 [2] = assay: as above
Caco-2 [3] = assay: as above
U2OS [4] = assay: as above
HepG2 [5] = assay: as above
Calu-3 [6] = assay: cell viability relative to DMSO; higher = less toxic
Vero E6 [7] = assay: as above
Caco-2 [8] = assay: as above
U2OS [9] = assay: as above
HepG2 [10] = assay: as above
Calu-3 [11] = assay: relative viability EC50 (midpoint between 100% and the lowest measured viability); higher = less toxic
Vero E6 [12] = assay: as above
Caco-2 [13] = assay: as above
U2OS [14] = assay: as above
HepG2 [15] = assay: as above

Row | Structure (SMILES) | drug sensitivity score (Calu-3 [1]) | drug sensitivity score (Vero E6 [2]) | drug sensitivity score (Caco-2 [3]) | drug sensitivity score (U2OS [4]) | drug sensitivity score (HepG2 [5]) | cell viability (Calu-3 [6]; 1 nM) | cell viability (Calu-3 [6]; 10 nM) | cell viability (Calu-3 [6]; 100 nM) | cell viability (Calu-3 [6]; 1000 nM) | cell viability (Calu-3 [6]; 10000 nM) | cell viability (Vero E6 [7]; 1 nM) | cell viability (Vero E6 [7]; 10 nM) | cell viability (Vero E6 [7]; 100 nM) | cell viability (Vero E6 [7]; 1000 nM) | cell viability (Vero E6 [7]; 10000 nM) | cell viability (Caco-2 [8]; 1 nM) | cell viability (Caco-2 [8]; 10 nM) | cell viability (Caco-2 [8]; 100 nM) | cell viability (Caco-2 [8]; 1000 nM) | cell viability (Caco-2 [8]; 10000 nM) | cell viability (U2OS [9]; 1 nM) | cell viability (U2OS [9]; 10 nM) | cell viability (U2OS [9]; 100 nM) | cell viability (U2OS [9]; 1000 nM) | cell viability (U2OS [9]; 10000 nM) | cell viability (HepG2 [10]; 1 nM) | cell viability (HepG2 [10]; 10 nM) | cell viability (HepG2 [10]; 100 nM) | cell viability (HepG2 [10]; 1000 nM) | cell viability (HepG2 [10]; 10000 nM) | relative viability EC50 (Calu-3 [11]) | relative viability EC50 (Vero E6 [12]) | relative viability EC50 (Caco-2 [13]) | relative viability EC50 (U2OS [14]) | relative viability EC50 (HepG2 [15])
1 | Nc1ncnc2c1C(=O)N(c1ccc([C@H]3CC[C@H](CC(=O)O)CC3)cc1)CCO2 | 0 | 0 | 0 | 0 | 0 | 107% | 99.7% | 109% | 105% | 110% | 98% | 103% | 93.7% | 107% | 107% | 100% | 90.6% | 95.3% | 98.1% | 104% | 104% | 99.6% | 109% | 102% | 97.5% | 91.2% | 101% | 95.3% | 117% | 92.3% | > 10 µM | > 10 µM | > 10 µM | > 10 µM | > 10 µM
2 | CCN(CCO)CCCC(C)Nc1ccnc2cc(Cl)ccc12 (centres undefined) [hydroxychloroquine] | 0 | 0 | 0.1 | 0 | 0 | 94.1% | 105% | 86.8% | 109% | 95.9% | 101% | 95.4% | 108% | 93.9% | 96.8% | 103% | 116% | 100% | 102% | 85.4% | 97.1% | 98.1% | 93.4% | 96.8% | 89.4% | 101% | 95.9% | 96.8% | 94.6% | 89.6% | > 10 µM | > 10 µM | > 10 µM | > 10 µM | > 10 µM
3 | Nc1c2c(nc3c1CCC3)CCCC2 [ipidacrine] | 0 | 0 | 0 | 0 | 0 | 99.2% | 99.9% | 88.6% | 90.9% | 100% | 96.5% | 96.4% | 95.8% | 94.7% | 108% | 84.5% | 96.4% | 96.3% | 91.8% | 106% | 96.8% | 93.4% | 103% | 94.8% | 99.4% | 101% | 99.9% | 104% | 94.6% | 109% | > 10 µM | > 10 µM | > 10 µM | > 10 µM | > 10 µM
4 | CO[C@H]1/C=C/O[C@@]2(C)Oc3c(C)c(O)c4c(O)c(c(/C=N/N5CCN(C6CCCC6)CC5)c(O)c4c3C2=O)NC(=O)/C(C)=C\C=C\[C@H](C)[C@H](O)[C@@H](C)[C@@H](O)[C@@H](C)[C@H](OC(C)=O)[C@@H]1C [rifapentine] | 0 | 0 | 0.7 | 0.2 | 0 | 101% | 104% | 94.4% | 111% | 88.2% | 96.2% | 93.7% | 97% | 89.1% | 97.7% | 95.2% | 94.9% | 94.4% | 102% | 77.6% | 96.3% | 103% | 95.3% | 100% | 85.7% | 96.4% | 92.9% | 94% | 97.7% | 89.3% | > 10 µM | > 10 µM | > 10 µM | > 10 µM | > 10 µM
5 | Cn1c2cc([S+](C)[O-])sc2c2cnn(Cc3cccc(N)c3)c(=O)c21 (centres undefined) [TEPP-46] | 0 | 0 | 0 | 0 | 0 | 104% | 97.6% | 96.7% | 94.7% | 94.7% | 103% | 97.4% | 106% | 96.3% | 91.9% | 98.7% | 98.3% | 92.7% | 98.1% | 89% | 98.3% | 97.1% | 97.8% | 100% | 98.7% | 119% | 103% | 111% | 98.5% | 102% | > 10 µM | > 10 µM | > 10 µM | > 10 µM | > 10 µM
6 | COc1cc(C(=O)NCCCCCC(=O)O)cc(OC)c1OC [capobenic-acid] | 0 | 0 | 3.1 | 0 |  | 96.3% | 94.9% | 94.5% | 104% | 98.6% | 103% | 101% | 99% | 101% | 94.6% | 110% | 111% | 96.7% | 80.2% | 93.5% | 97% | 103% | 94.7% | 111% | 94% |  |  |  |  |  | > 10 µM | > 10 µM | > 10 µM | > 10 µM | 
7 | COc1cc2c(cc1OC)-c1cc3nc4ccccc4nc3n1C(C)(C)C2 | 0 | 0 | 0 |  | 1.8 | 104% | 103% | 99.8% | 95.2% | 97.3% | 108% | 102% | 104% | 92.2% | 107% | 97.9% | 103% | 106% | 99.1% | 89.1% |  |  |  |  |  | 98.7% | 83.6% | 89.7% | 95.1% | 76.2% | > 10 µM | > 10 µM | > 10 µM |  | > 10 µM
8 | N#Cc1cc(-c2n[nH]c(-c3ccncc3)n2)ccn1 [topiroxostat] | 0 | 0 | 0 |  | 0 | 103% | 87.4% | 107% | 95.1% | 118% | 102% | 103% | 101% | 102% | 99.8% | 98.2% | 92.9% | 89.6% | 95.9% | 107% |  |  |  |  |  | 102% | 91.1% | 98.8% | 100% | 96.1% | > 10 µM | > 10 µM | > 10 µM |  | > 10 µM
9 | CCn1c(=O)c(-c2cc[nH]n2)cc2c(C)nc(N)nc21 [voxtalisib] | 6.8 | 6.1 | 5.2 | 3.1 | 5.4 | 95% | 91.9% | 91% | 71.9% | 32.6% | 104% | 104% | 91.2% | 80.8% | 33.5% | 102% | 96.7% | 93.5% | 86.5% | 42.9% | 99.3% | 97.3% | 97.9% | 93.1% | 60.3% | 108% | 106% | 101% | 88.5% | 35.4% | 1.17 µM | 1.55 µM | 1.61 µM |  | 1.84 µM
10 | O=C(O)CCCN1CCC(O[C@@H](c2ccc(Cl)cc2)c2ccccn2)CC1 [bepotastine] | 0 | 0 | 0 |  | 0 | 97% | 106% | 94.2% | 93.8% | 113% | 93.2% | 98.3% | 90.2% | 95.8% | 105% | 91.3% | 92.1% | 99.4% | 93.4% | 107% |  |  |  |  |  | 98.7% | 113% | 99% | 102% | 113% | > 10 µM | > 10 µM | > 10 µM |  | > 10 µM
11 | CC(=O)Nc1ccc(OC(C)=O)cc1 [diacetamate] | 0.2 | 0 | 0 |  | 0 | 99.1% | 99.7% | 99.7% | 101% | 84.9% | 96.1% | 96% | 94.3% | 84.8% | 101% | 91.8% | 103% | 94.7% | 101% | 111% |  |  |  |  |  | 114% | 98.5% | 110% | 101% | 105% | > 10 µM | > 10 µM | > 10 µM |  | > 10 µM
12 | CCCCCCCCCCCCCCCC[N+](C)(C)CCN(Cc1ccc(OC)cc1)c1ncccn1 [thonzonium] | 7.9 | 0.4 | 8.3 |  | 3.9 | 102% | 100% | 96.3% | 85.8% | -0.1% | 96% | 97.8% | 94.6% | 97.5% | 85.6% | 106% | 98.1% | 110% | 80.3% | 7.2% |  |  |  |  |  | 94.4% | 101% | 93.8% | 103% | 24.4% | 2.04 µM | > 10 µM | 1.69 µM |  | 3.41 µM
13 | COC(=O)[C@H](NC(=O)c1cc(-c2ccccc2)nc2ccccc12)c1ccccc1 | 0 | 0 | 0 |  | 0 | 104% | 93% | 101% | 102% | 103% | 92.6% | 91.3% | 91.5% | 92.7% | 100% | 110% | 94.9% | 106% | 104% | 109% |  |  |  |  |  | 91.4% | 99.6% | 96.4% | 89.6% | 103% | > 10 µM | > 10 µM | > 10 µM |  | > 10 µM
14 | CCCn1c(=O)[nH]c2nc(-c3ccc(S(=O)(=O)O)cc3)[nH]c2c1=O [PSB-1115] | 0 | 0 | 0 | 0 |  | 112% | 104% | 100% | 110% | 94.4% | 106% | 105% | 107% | 103% | 95.5% | 99.4% | 94.6% | 111% | 105% | 95.4% | 99.9% | 109% | 98.2% | 108% | 102% |  |  |  |  |  | > 10 µM | > 10 µM | > 10 µM | > 10 µM | 
15 | CCCC(C)(COC(N)=O)COC(=O)NC(C)C (centres undefined) [CARISOPRODOL] | 0 | 0 | 0 | 0 |  | 108% | 88.2% | 93.2% | 85.7% | 98.1% | 106% | 101% | 98.8% | 105% | 101% | 96.1% | 103% | 97.6% | 101% | 104% | 102% | 97.7% | 101% | 102% | 104% |  |  |  |  |  | > 10 µM | > 10 µM | > 10 µM | > 10 µM | 
16 | CN(C)CC[C@H](CSc1ccccc1)Nc1ccc(S(=O)(=O)NC(=O)c2ccc(N3CCN(Cc4ccccc4-c4ccc(Cl)cc4)CC3)cc2)cc1[N+](=O)[O-] [ABT-737] | 4 | 0 | 0.3 |  | 0 | 115% | 99.1% | 114% | 95.2% | 39.3% | 97.2% | 98.6% | 95.3% | 96% | 95.1% | 104% | 92.4% | 105% | 101% | 83.8% |  |  |  |  |  | 109% | 111% | 104% | 95.8% | 93% | 2.52 µM | > 10 µM | > 10 µM |  | > 10 µM
